In patent US12479791B2, “Cationic lipid” (Takeda Pharmaceutical Company Limited, priority 2018, dated 2025):

Key:
[1] = system: human colorectal cancer-derived cell line HCT116; assay: Transfection of cultured cell with mRNA (luciferase luminescence); assay type: cell-based; details: 10 ng luciferase mRNA, 24 hours
Experimental: A human colorectal cancer-derived cell line HCT116 was cultured at a cell density of 6000 cells/well in a 96-well plate. 24 hours later, 10 μl of the lipid particle containing 10 ng of luciferase mRNA was added to the medium. 24 hours after the addition of mRNA, a reagent of Picagene LT2.0 kit (Toyobo Co., Ltd.) was added to the culture plate of HCT116. The luminescence (count per sec (cps)) of luciferase was measured using a luminescence plate reader EnVision (PerkinElmer, Inc.).

[2] = Analysis of luciferase mRNA-encapsulated lipid nanoparticle (Production Example 2); assay type: physicochemical; details: for Rate of encapsulation / Average particle size: luciferase mRNA lipid nanoparticle; for mRNA concentration: luciferase mRNA lipid nanoparticle dispersion after dialysis and filtration; for Average particle size: cationic lipid:DPPC:cholesterol:GS-020=60:10.6:28:1.4
Text: The particle size of the lipid particle (in the composition) can be measured by a known approach. For example, the particle size can be calculated as a Z-average particle size by the cumulant analysis of an autocorrelation function using a particle size measurement apparatus Zetasizer Nano ZS (Malvern Instruments) based on a dynamic light scattering measurement technique. The particle size (average particle size) of the lipid particle (in the composition) is, for example, 10 to 200 nm, preferably 60 to 170 nm.
The concentration and rate of encapsulation of the nucleic acid (e.g., siRNA or mRNA) in the composition of the present invention can be measured by a known approach. For example, the nucleic acid is fluorescently labeled using Quant-iT™ RiboGreen® (Invitrogen Corp.), and the fluorescence intensity can be measured to determine the concentration and the rate of encapsulation. The concentration of the nucleic acid in the composition can be calculated using a calibration curve prepared from aqueous nucleic acid solutions having known concentrations. The rate of encapsulation can be calculated on the basis of the difference in fluorescence intensity between the presence and absence of addition of Triton-X 100 (surfactant for disrupting the lipid particle). The concentration of the nucleic acid in the composition refers to the total concentration of a nucleic acid encapsulated in the lipid particle and an unencapsulated nucleic acid. The rate of encapsulation refers to the ratio of the nucleic acid encapsulated in the lipid particle to all nucleic acids in the composition.
A lipid mixture (cationic lipid:DPPC:cholesterol:GS-020=60:10.6:28:1.4, molar ratio) was dissolved in 90% of EtOH and 10% of water to obtain an 8.5 mg/ml lipid solution. Luciferase mRNA (TriLink BioTechnologies, Inc.) was dissolved in a 10 mM 2-morpholinoethanesulfonic acid (MES) buffer solution (pH 4.0) to obtain a 0.22 mg/ml nucleic acid solution. The obtained lipid solution and nucleic acid solution were mixed at a flow rate ratio of 3 ml/min:6 ml/min at room temperature using NanoAssemblr apparatus (Precision NanoSystems Inc.) to obtain a dispersion containing a composition. The obtained dispersion was dialyzed against water at room temperature for 1 hour and against PBS at 4° C. for 48 hours using Slyde-A-Lyzer (molecular weight cutoff: 20 K, Thermo Fischer Scientific Inc.). Subsequently, the dialysate was filtered through a 0.2 μm syringe filter (Iwaki) and preserved at 4° C.

Rate of encapsulation [2]	mRNA concentration [2]	Average particle size [2]	SMILES	Average luminescence (cps) of 3 wells ([1]; Table 6 (PBS control 1040))	Average luminescence (cps) of 3 wells ([1]; Table 7 (PBS control 413))	Average luminescence (cps) of 3 wells ([1]; Table 9 (PBS control 80))	Average luminescence (cps) of 3 wells ([1]; Table 10 (PBS control 293))
93%	160 µg/mL	134 nm	CCCCCC(=O)OCC(COC(=O)CCCCC)(COC(=O)CCCCN(C)C)COC(=O)CCC(CCCCC)C(CCCCC)CCCCC (stereo not drawn) [Example 12, 3-((5-(Dimethylamino)pentanoyl)oxy)-2,2-bis((hexanoyloxy)methyl)propyl 4,5-dipentyldecanoate]	–	–	62587 cps	–
99%	127 µg/mL	164 nm	CCCCCC(=O)OCC(COC(=O)CCCCC)(COC(=O)CCCCN(C)C)COC(=O)CCC(CCCC)C(CCCC)CCCC (stereo not drawn) [Example 15, 3-((5-(Dimethylamino)pentanoyl)oxy)-2,2-bis((hexanoyloxy)methyl)propyl 4,5-dibutylnonanoate]	–	–	–	3293 cps
87%	116 µg/mL	152 nm	CCCCCCCC(=O)OCC(COC(=O)CCCCCCC)(COC(=O)CCCCN(C)C)COC(=O)CCC(CCC)C(CCC)CCC (stereo not drawn) [Example 17, 3-((5-(Dimethylamino)pentanoyl)oxy)-2,2-bis((octanoyloxy)methyl)propyl 4,5-dipropyloctanoate]	–	–	–	7987 cps

Second part, the molecule before the results:

SMILES	Rate of encapsulation [2]	mRNA concentration [2]	Average particle size [2]	Average luminescence (cps) of 3 wells ([1]; Table 6 (PBS control 1040))	Average luminescence (cps) of 3 wells ([1]; Table 7 (PBS control 413))	Average luminescence (cps) of 3 wells ([1]; Table 9 (PBS control 80))	Average luminescence (cps) of 3 wells ([1]; Table 10 (PBS control 293))
CCCCCCCC(=O)OCC(COC(=O)CCCCCN(C)C)(COC(=O)C(CCCCCC)CCCCCC)COC(=O)C(CCCCCC)CCCCCC [Example 8]	91%	97 µg/mL	103 nm	381693 cps	–	–	–
CCCCCCCC(=O)OCC(COC(=O)CCCCN(C)C)(COC(=O)CC(CCCCC)CCCCC)COC(=O)CC(CCCCC)CCCCC [Example 9]	94%	77 µg/mL	96 nm	–	63493 cps	–	–
CCCCCCCC(=O)OCC(COC(=O)CCCCCCC)(COC(=O)CCC(CCCC)C(CCCC)CCCC)COC(=O)NCCCCN(C)C (stereo not drawn) [Example 18, 3-(((4-(Dimethylamino)butyl)carbamoyl)oxy)-2,2-bis((octanoyloxy)methyl)propyl 4,5-dibutylnonanoate]	99%	103 µg/mL	77 nm	–	–	–	12813 cps
